Data from publication PMC3431822, “Enzymatic Properties and Mutational Studies of Chalcone Synthase from Physcomitrella patens” (International Journal of Molecular Sciences, 2012).

Target: T1, PpCHS (Physcomitrium patens, UniProt Q2VAZ3)
T1 construct: gene PHYPA_029015; homodimer ~120 kDa
Assay: HPLC of pyrone product, UV […] nm
Assay type: biochemical
Settings: hexanoyl-CoA co-substrate, 20 mM phosphate pH 7, 30 °C, 2 h; extender substrate; Trx-fusion enzyme

T1 sequence (Q2VAZ3 entry or part of it): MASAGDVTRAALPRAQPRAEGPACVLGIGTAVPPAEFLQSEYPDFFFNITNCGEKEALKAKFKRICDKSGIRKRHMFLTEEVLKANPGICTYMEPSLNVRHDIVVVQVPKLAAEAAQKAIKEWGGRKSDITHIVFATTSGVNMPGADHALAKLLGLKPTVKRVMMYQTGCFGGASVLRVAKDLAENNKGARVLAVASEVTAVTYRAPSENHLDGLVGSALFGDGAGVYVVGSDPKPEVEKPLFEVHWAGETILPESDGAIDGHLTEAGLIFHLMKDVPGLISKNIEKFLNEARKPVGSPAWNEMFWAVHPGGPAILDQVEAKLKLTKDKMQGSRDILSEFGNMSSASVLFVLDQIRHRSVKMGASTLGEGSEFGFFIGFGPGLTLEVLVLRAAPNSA

CC(C)(COP(=O)(O)OP(=O)(O)OC[C@H]1O[C@@H](n2cnc3c(N)ncnc32)[C@H](O)[C@@H]1OP(=O)(O)O)[C@@H](O)C(=O)NCCC(=O)NCCSC(=O)CC(=O)O [malonyl-CoA]
HPLC of pyrone product, UV 280 nm: HPLC Analysis of the reaction of hexanoyl-CoA and malonyl-CoA with PpCHS
